This is an account of results in patent US8273759B2, “Fungicide heterocyclyl-pyrimidinyl-amino derivatives” (Bayer Cropscience AG, priority 2007, dated 2012).

SMILES strings stand for the structures.

System in one series: not listed separately
As to the kind of experiment: log P by reversed-phase HPLC (EEC Directive 79/831 Annex V.A8). The series is classed as physicochemical. To be noted: reversed-phase C 18, 40° C., 0.1% aqueous formic acid and acetonitrile gradient. The procedure:
Temperature: 40° C.; Mobile phases: 0.1% aqueous formic acid and acetonitrile; linear gradient from 10% acetonitrile to 90% acetonitrile.
`c1cc(NCC2CC2)nc(Nc2nccc(-c3ccnc(NCC4CC4)c3)n2)c1` [Compound 16]: the “log PHCOOH” value was 0.96. As to `c1cc(Nc2nccc(-c3ccnc(NC4CCCC4)c3)n2)nc(NC2CCCC2)c1` [Compound 31], the “log PHCOOH” value was 1.23. Turning to `c1cc(NCC2CCCO2)nc(Nc2nccc(-c3ccnc(NCC4CCCO4)c3)n2)c1` (stereo not shown) [Compound 7], the “log PHCOOH” value was 0.86. Still for that read-out and setting: the value for `CC(C)C(C)Nc1cc(Nc2nccc(-c3ccnc(NC(C)C(C)C)c3)n2)ccn1` (stereo not shown) [Compound 18] was 1.34; that for `CCC(C)Nc1cc(-c2ccnc(Nc3cccc(Cl)n3)n2)ccn1` (stereo not shown) [Compound 25] was 2.00; that for `CCC(CC)Nc1cc(-c2ccnc(Nc3cccc(NC(CC)CC)n3)n2)ccn1` [Compound 30] was 1.47.

With `CCC(COC)Nc1cc(Nc2nccc(-c3ccnc(NC(CC)COC)c3)n2)ccn1` (stereo not shown) [Compound 34], the “log PHCOOH” value was found to be 1.10. Turning to `c1cc(Nc2nccc(-c3ccnc(NCC4CC4)c3)n2)cc(NCC2CC2)n1` [Compound 5], the “log PHCOOH” value amounted to 0.97. On to `Clc1cc(Nc2nccc(-c3ccnc(NC4CCCCC4)c3)n2)ccn1` [Compound 8], for which the “log PHCOOH” value is given as 1.64. Consider `CC(C)C(C)Nc1cc(-c2ccnc(Nc3cccc(Cl)n3)n2)ccn1` (stereo not shown) [Compound 26], for which the “log PHCOOH” value was determined as 2.15. Regarding `c1cc(Nc2nccc(-c3ccnc(NC4CCCCC4)c3)n2)cc(NC2CCCCC2)n1` [Compound 15], the “log PHCOOH” value was found to be 1.52.

In the case of `CC(C)C(C)Nc1cc(-c2ccnc(Nc3ccnc(Cl)c3)n2)ccn1` (stereo not shown) [Compound 10], the “log PHCOOH” value is reported as 1.66. Take `CCC(CC)Nc1cc(-c2ccnc(Nc3cccc(Cl)n3)n2)ccn1` [Compound 24]: the “log PHCOOH” value came to 2.09. With `CCC(CO)Nc1cc(-c2ccnc(Nc3ccc(OC)nc3)n2)ccn1` (stereo not shown) [Compound 2], the “log PHCOOH” value was 1.35. The same measure, in the same setting: the value for `CCCCCNc1cc(Nc2nccc(-c3ccnc(NCCCCC)c3)n2)ccn1` [Compound 17] was 1.57; that for `c1cc(Nc2nccc(-c3ccnc(NC4CCCCC4)c3)n2)nc(NC2CCCCC2)c1` [Compound 4] was 1.70; that for `c1cc(Nc2nccc(-c3ccnc(NC4CCC4)c3)n2)nc(NC2CCC2)c1` [Compound 3] was 1.12. As to `CCCC(C)Nc1cc(Nc2nccc(-c3ccnc(NC(C)CCC)c3)n2)ccn1` (stereo not shown) [Compound 20], the “log PHCOOH” value amounted to 1.43. In the case of `CC(CN(C)C)Nc1cc(-c2ccnc(Nc3cccc(Cl)n3)n2)ccn1` (stereo not shown) [Compound 28], the “log PHCOOH” value was 1.42. `c1cc(Nc2nccc(-c3ccnc(NC4CCC4)c3)n2)cc(NC2CCC2)n1` [Compound 19]: the “log PHCOOH” value stood at 1.05. For the compound `COc1ccc(Nc2nccc(-c3ccnc(N(C)C)c3)n2)cn1` [Compound 1], the “log PHCOOH” value worked out at 1.24. Take `Clc1cccc(Nc2nccc(-c3ccnc(NCC4CCCO4)c3)n2)n1` (stereo not shown) [Compound 27]: the “log PHCOOH” value was 1.64. Turning to `CCC(C)Nc1cc(-c2ccnc(Nc3ccc(OC)nc3)n2)ccn1` (stereo not shown) [Compound 39], the “log PHCOOH” value is listed as 1.48.

For `COc1ccc(Nc2nccc(-c3ccnc(NCC(C)C)c3)n2)cn1` [Compound 46], the “log PHCOOH” value is listed as 1.42.

Regarding `CCCC(C)Nc1cc(-c2ccnc(Nc3ccnc(Cl)c3)n2)ccn1` (stereo not shown) [Compound 12], the “log PHCOOH” value is on record as 1.72.

As to `COCCCNc1cc(-c2ccnc(Nc3cccc(NCCCOC)n3)n2)ccn1` [Compound 6], the “log PHCOOH” value was determined as 0.83. `COCC(C)Nc1cc(-c2ccnc(Nc3ccc(OC)nc3)n2)ccn1` (stereo not shown) [Compound 38]: the “log PHCOOH” value is listed as 1.29. In the case of `CCC(COC)Nc1cc(-c2ccnc(Nc3cccc(Cl)n3)n2)ccn1` (stereo not shown) [Compound 29], the “log PHCOOH” value was found to be 1.85. In the case of `CC(C)C(C)Nc1cc(-c2ccnc(Nc3cccc(NC(C)C(C)C)n3)n2)ccn1` (stereo not shown) [Compound 33], the “log PHCOOH” value worked out at 1.43. As to `COc1ccc(Nc2nccc(-c3ccnc(NC4COC4)c3)n2)cn1` [Compound 36], the “log PHCOOH” value amounted to 1.10.

On to `c1cc(Nc2nccc(-c3ccnc(NC4CCCC4)c3)n2)cc(NC2CCCC2)n1` [Compound 22], for which the “log PHCOOH” value is on record as 1.22. Turning to `CCC(CC)Nc1cc(Nc2nccc(-c3ccnc(NC(CC)CC)c3)n2)ccn1` [Compound 21], the “log PHCOOH” value came out at 1.33.

Take `Clc1cc(Nc2nccc(-c3ccnc(NC4CCCC4)c3)n2)ccn1` [Compound 14]: the “log PHCOOH” value came to 1.58. On to `Clc1cc(Nc2nccc(-c3ccnc(NC4CCC4)c3)n2)ccn1` [Compound 11], for which the “log PHCOOH” value was 1.45. Take `COCC(C)Nc1cc(-c2ccnc(Nc3ccnc(Cl)c3)n2)ccn1` (stereo not shown) [Compound 35]: the “log PHCOOH” value is listed as 1.34. As to `CCC(C)Nc1cc(Nc2nccc(-c3ccnc(NC(C)CC)c3)n2)ccn1` (stereo not shown) [Compound 23], the “log PHCOOH” value amounted to 1.10. On the same count and under the same terms, the value for `CCC(C)Nc1cc(-c2ccnc(Nc3cccc(NC(C)CC)n3)n2)ccn1` (stereo not shown) [Compound 32] was 1.23. The same measure, in the same setting: as for `CCC(CC)Nc1cc(-c2ccnc(Nc3ccnc(Cl)c3)n2)ccn1` [Compound 13], the figure is 1.64.

Staying with this series, now noted: reversed-phase C18 HPLC column, reversed-phase C 18, 40° C., 0.1% aqueous formic acid and acetonitrile gradient, read-out: log PHCOOH.
Turning to `CCC(COC)Nc1cc(-c2ccnc(Nc3ccnc(Cl)c3)n2)ccn1` (stereo not shown) [Compound 9, N-(2-chloropyridin-4-yl)-4-(2-{[1-(methoxymethyl)propyl]amino}pyridin-4-yl)pyrimidin-2-amine], the chromatographic logP was 1.37.

A further series has as its system Pyricularia grisea.
Assay: not given
The class given is in vivo. To be noted: 500 ppm; rice plants sprayed 24 hours before contamination; grading 6 days after contamination.
For `CCC(COC)Nc1cc(-c2ccnc(Nc3ccnc(Cl)c3)n2)ccn1` (stereo not shown) [Compound 9, N-(2-chloropyridin-4-yl)-4-(2-{[1-(methoxymethyl)propyl]amino}pyridin-4-yl)pyrimidin-2-amine], the “protection (good, at least 70%, or total), % of efficacy” value is listed as “at least 70%”.
